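48-hour exposure; five concentrations; linearly interpolated endpoints. Abbreviation: GI50, concentration required for 50% inhibition of growth. The concentration for full growth arrest is given as TGI.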
Tests used:
Experiment in all cases: DTP human tumour cell line panel, 48 h
KM12 colon = test system: KM12 colon
OVCAR-4 ovarian = test system: OVCAR-4 ovarian
SK-MEL-5 melanoma = test system: SK-MEL-5 melanoma
NCI-H23 lung = test system: NCI-H23 lung
NCI/ADR-RES ovarian = test system: NCI/ADR-RES ovarian
HS 578T breast = test system: HS 578T breast
BT-549 breast = test system: BT-549 breast
SR leukemia = test system: SR leukemia
PC-3 prostate = test system: PC-3 prostate
LXFL 529 NSCLC = test system: LXFL 529 NSCLC
MDA-N = test system: MDA-N

SMILES	TGI (KM12 colon) [µM]	TGI (OVCAR-4 ovarian) [µM]	TGI (SK-MEL-5 melanoma) [µM]	TGI (NCI-H23 lung) [µM]	TGI (NCI/ADR-RES ovarian) [µM]	GI50 (HS 578T breast) [µM]	TGI (HS 578T breast) [µM]	GI50 (BT-549 breast) [µM]	TGI (BT-549 breast) [µM]	GI50 (SR leukemia) [µM]	TGI (SR leukemia) [µM]	GI50 (KM12 colon) [µM]	GI50 (PC-3 prostate) [µM]	TGI (PC-3 prostate) [µM]	GI50 (SK-MEL-5 melanoma) [µM]	GI50 (NCI-H23 lung) [µM]	GI50 (NCI/ADR-RES ovarian) [µM]	GI50 (LXFL 529 NSCLC) [µM]	TGI (LXFL 529 NSCLC) [µM]	TGI (MDA-N) [µM]
O=C1C=C(C2OC(CO)C(O)C2O)C(=O)N1 (stereo not drawn)	> 100	> 100	> 100	> 100	> 100															
CCCC(C)c1ccc(OCCCCCCN2CCNCC2)cc1 (stereo not drawn)	3.85		3.1	5.62	5.37	1.87	4.74	3.08	12.4	1.7	4.21	1.87	2.02	4.94	1.67	2.13	2.22			
N#C[S-].[La+3].c1cnc2c(c1)ccc1cccnc12.c1cnc2c(c1)ccc1cccnc12.c1cnc2c(c1)ccc1cccnc12	22.6	16.8	12.7	22.2							8.8							1.83	15.3	
OC(CC1CCCCN1)c1ccc2c(c1)oc1ccccc12 (stereo not drawn)	> 100	> 100	34.1	> 100	> 100		> 100		> 100		> 100			> 100						> 100
CC1(C)[C@@H]2CC[C@]1(C)[C@H](OC(=O)CSC#N)C2	> 100	> 100	> 100	> 100	> 100		> 100		> 100					> 100						> 100
COc1cc2c(cc1O)c(O)cc1c3cc(OC)c(OC)cc3c[n+](C)c21	> 100	> 100	40.2	29.5	> 100		> 27.4		> 100					> 100						35.7
Cc1ccc2c(ccc(/C=C/c3ccc(O)c4ncccc34)[n+]2C)c1	33.3	33.6	35.3	40.7	> 100		> 100		> 29		> 35.7			> 49.8					19.7	> 44.9
O=C(c1ccccc1)c1ccc2n[se]nc2c1	> 100	> 100	> 100	> 100															> 100	
CN(C)/C=C/C(=CC=[N+](C)C)/C=C/N(C)C	> 100	> 100	> 100	> 100							> 100								> 100	
CCC1C[N+]23CCc4c([nH]c5ccccc45)C2CC1CC3 (stereo not drawn)	> 100	> 100	48.9	> 100							> 100								> 100	
CN(C)CCNC(=O)c1cccc2c(=O)c3ccccc3oc12	> 100	> 90.5	60.5	> 100	> 79.9															
CCOP(=Nc1ccc(N(C)C)cc1)(OCC)OCC	> 100	> 100	> 100	> 100	> 100		> 100		> 100					> 100						> 100
OC(CNc1ccccn1)c1ccccc1 (stereo not drawn)	> 100	> 100	> 100	> 100	> 100		> 100		> 100					> 100						> 100
Cc1ccc(S(=O)(=O)Nc2cccc3c(=O)[nH]cnc23)cc1	> 100	> 100	> 100	> 100							> 100								> 100	
CC(=O)C(C(c1ccccc1)N1CCOCC1)N1CCOCC1 (stereo not drawn)	> 100	> 100	> 100	> 100	> 100		> 100		> 100		> 100			> 100						> 100
CC1=C2C(O)C(C(C)C(=O)N(C)C)CCC2(C)C=CC1=O (stereo not drawn)	> 100	> 100	> 100	> 100	> 100															
